US4033721A, “Analysis of gentian violet residue in tissue” (priority 1976, dated 1977)
Where “and” joins values, the source holds several entries; their conditions need not be identical. Equal values may be shown once. Read-outs that look alike come from different tables or passages of the source.

What was measured:
[1] = cited from earlier work
[2] = cited from earlier work; remark: listed apart in the source
[3] = water, chloroform and ethanol; cited from earlier work
Candida albicans = conditions: cited from earlier work
normal coliform bacteria = conditions: intestinal tract; cited from earlier work
[4] = Stability of gentian violet (light, acid, digestive tract pH); type: physicochemical
[5] = Spectrophotometric determination of gentian violet residue in livers of chickens fed gentian violet (Examples 2 to 24); type: in vivo
Method: This example involves the spectrophotometrical determination of the gentian violet content (as a residue) of poultry tissue.
An acid alcohol solution was prepared by adding 20 ml of concentrated hydrochloric acid to 2,000 ml of 95 percent ethyl alcohol (denatured).
A gentian violet stock solution was prepared as follows: Using the Ainsworth chainomatic analytical balance, 0.104 gm of crystalline gentian violet (USP) was accurately weighed out and quantitatively transferred to a 1000 ml volumetric flask and q.s. to 1000 ml with distilled water. A magnetic stirring bar was inserted into the flask and the gentian violet solution was mixed on a magnetic mixer for 1 hour. This solution contained 100 ug of gentian violet per ml (100 ppm).
Gentian violet-acid alcohol standard solutions were prepared as follows: Five standard dilutions of gentian violet in acid alcohol were prepared and the absorbence (O.D.) for each dilution was determined. The absorbence of the 5 dilutions were plotted on a graph to determine the linearity of the gentian violet curve.
The spectrophotometer was set at 590 mμ and zeroed using an acid alcohol blank. The absorbence of the 5 standard dilutions in the 13 mm cuvette was determined. The O.D. of the 1 ppm dilution in the 13 mm cuvette was recorded for use in calculation of the gentian violet recovery. (If method sensitivity below 0.1 ppm is desired, the O.D. of the 1 ppm standard in the 100 mm cell is recorded and the Beckman D.U. is used to make the determinations.)
A sodium hypochlorite quenching solution was prepared as follows: 0.26 gm. of sodium hypochlorite was weighed into a 250 ml Erlenmeyer flask and q.s. to 100 ml with distilled water. This solution was 0.26 percent NaOCL. If sodium hypochlorite is not available in the laboratory, this solution can be made from any standard household bleaching solution containing sodium hypochlorite (i.e., Clorox) at the 5.25 percent concentration. 1 ml 5.25 percent NaOCL q.s. to 20 ml with distilled water to give 20 ml of 0.26 percent NaOCL.
The tissue samples were prepared by grinding the tissues in a Waring-type blender to reduce the tissues to the smallest particle size possible. Using a Mettler P162-type balance, 5 gm samples of the finely ground tissues were weighed (in triplicate) into Erlenmeyer flasks.
Gentian violet was extracted from tissue samples as follows: 50 ml of acid-alcohol were added (using a graduated glass cylinder) to each of the samples in the flasks. A 3/4" magnetic stirring bar was inserted into each sample. The flasks were stoppered. The samples were placed on the magnetic mixers and mixed for 1 hour. After mixing, the samples were set in the dark to digest for 12 hours (overnight). After 12 hours of digestion the samples were again placed on the magnetic mixer and mixed for 1 hour. The contents of the sample flasks were poured into 60 ml glass centrifuge tubes and centrifuged at 2400 rpm for 10 minutes.
Chromatographic column clearing of the centrifuged samples was achieved as follows: Each column was equipped with a glass stop-cock, if the column was not so equipped. A small glass-wool pledget was inserted firmly in the bottom of the column to fill the bottom curve of the column. 5 to 6 grams of the Alumin AR sorbent was added to each column. The supernatant liquid was carefully decanted from the centrifuge tube into the chromatographic column. A 50 ml beaker was placed under each column. The stop-cock was opened and the first eluant from the column was collected until a minimum of 20 ml was collected. (This first eluant ordinarily was yellow in color but contained the extracted gentian violet.)
Spectrophotometric determination of the gentian violet concentration from the tissue sample was determined as follows: 5 ml of each of the eluants was pipetted into the 13 mm cuvettes. The spectrophotometer was set at 590 mu. The spectrophotometer was zeroed using an acid alcohol blank in the 13 mm cuvette. It was established that all cuvettes were matched. […]

[6] = Residual 14C-gentian violet in tissues of cockerels after repeated oral administration (Example 26)
[7] = cited from earlier work; remark: listed apart in the source
[8] = cited from earlier work; remark: listed apart in the source
[9] = 4 hours after last administration

For `CN(C)c1ccc(C(=C2C=CC(=[N+](C)C)C=C2)c2ccc(N(C)C)cc2)cc1` [gentian violet, hexamethylpararosaniline chloride], the biodegradability ([1]; contaminant in water and residue in poultry manure, ultra-violet rays of sunlight) is given as “biodegradable”, the “stability in the digestive tract pH range” value ([1]; pH range of the digestive tract of animals and poultry) is given as “stable” and the absorption ([2]; digestive tract of animals and poultry) is given as “essentially non-absorbable”. For the same molecule, the “residue in tissue of animals fed the compositions” value ([2]; in vivo) was “little or no residue”, the solubility [3] was “soluble in water, chloroform and ethanol” and the “effect on Candida albicans” value (Candida albicans) was “inhibits the growth of and destroys Candida albicans”. The “effect on growth and activity of normal coliform bacteria” value (normal coliform bacteria) was “without materially reducing the growth of and activity of the normal coliform bacteria”, the acid stability ([4]; acid ethanol extract, pH lowered by evaporation) was “the acid would destroy the extracted gentian violet” and the light stability ([4]; ultra violet rays of sunlight) was “extremely sensitive to decomposition”. For the same molecule, the “gentian violet residue with time after last intake of feed” value ([5]; chicken liver) was “lower with time”, the “p.p.m. of Gentian Violet in liver” value ([5]; chicken liver, feed 7 ppm for 56 days, 4 hours after final dose, 240 min) was 0.28 p.p.m and the “p.p.m. of Gentian Violet in liver” value ([5]; chicken liver, feed 7 ppm for 56 days, 24 hours after final dose, 1440 min) was 0.20 p.p.m. For the same molecule, the “p.p.m. of Gentian Violet in liver” value ([5]; chicken liver, feed 7 ppm for 56 days, 48 hours after final dose, 2880 min) was 0.08 p.p.m. and 0.16 p.p.m, the “p.p.m. of Gentian Violet in liver” value ([5]; chicken liver, feed 35 ppm for 56 days, 12 hours after final dose) was 0.44 p.p.m and the “p.p.m. of Gentian Violet in liver” value ([5]; chicken liver, feed 35 ppm for 56 days, 24 hours after final dose, 1440 min) was 0.80 p.p.m. and 0.60 p.p.m. It also gave a concentration at 4 h ([5]; chicken, liver, po, feed 7 ppm for 56 days, 4 hours after final dose, read-out: p.p.m. of Gentian Violet in liver) of 240 ng/g, a concentration at 12 h ([5]; chicken, liver, po, feed 7 ppm for 56 days, 12 hours after final dose, read-out: p.p.m. of Gentian Violet in liver) of 120 ng/g and a concentration at 48 h ([5]; chicken, liver, po, feed 7 ppm for 56 days, 48 hours after final dose, read-out: p.p.m. of Gentian Violet in liver) of 80 ng/g. For the same molecule, the concentration at 12 h ([5]; chicken, liver, po, feed 35 ppm for 56 days, 12 hours after final dose, read-out: p.p.m. of Gentian Violet in liver) was 440 ng/g, the concentration at 24 h ([5]; chicken, liver, po, feed 35 ppm for 56 days, 24 hours after final dose, read-out: p.p.m. of Gentian Violet in liver) was 640 ng/g and the concentration at 48 h ([5]; chicken, liver, po, feed 35 ppm for 56 days, 48 hours after final dose, read-out: p.p.m. of Gentian Violet in liver) was 360 ng/g. The “radioactivity in 5X kidneys relative to 1X kidneys” value [6, 9] was 4.7 times, the “radioactivity in 5X livers relative to 1X livers” value [6, 9] was 2.7 times and the “concentration by the liver relative to the kidneys” value ([6]; in vivo) was “about twice as much”. The “disappearance from one organ versus the other” value ([6]; livers and kidneys) was “does not disappear more rapidly from one organ than the other”, the “mean half-life in the two organs at dose levels” value ([6]; livers and kidneys, 5X and 1X) was 32.2 h and the “growth on mycotoxin-contaminated feed” value ([7]; feed containing gentian violet at the claimed levels) was “increased at a rate significantly faster”. The growth promotion ([7]; feed contaminated with aflatoxin) was “works as a growth promoter”, the “sparing effect versus aflatoxin concentration” value ([7]; in vivo) was “appears to be a linear function of the concentration of the aflatoxin in the feed” and the “toxic effects in poultry” value ([8]; in vivo) was “can kill the poultry or cause a decrease in the weight gain of the poultry”. For the same molecule, the “toxicity of residue levels to the consuming animal or poultry” value ([8]; levels given in U.S. Pat. No. 3,916,027) was “not toxic or harmful”.
